Like-named read-outs stand apart in the source and are kept apart here.
How the values were obtained:
[1] = tested on: testicular co-culture: spermatogonial cells (C18-4), Sertoli cells (TM4), Leydig cells (TM3); details: co-culture; for in vitro call as reproductive toxicant: 48 h, based on cluster analysis; for effect on cell viability (NR uptake), in words: 48 h treatment, FIG. 6
[2] = tested on: testicular co-culture: spermatogonial cells (C18-4), Sertoli cells (TM4), Leydig cells (TM3); experiment: cells; details: Mus musculus
[3] = tested on: testicular cell co-culture (C18-4, TM4, TM3); experiment: Machine learning-based HCA phenotype classification (multinucleated cells, M phase, stretching F-actin filaments); format: cell-based, mouse; details: for induction of multinucleated cells, in words: FIG. 12F
Text: Our processing pipeline included cell segmentation, localization, and measurements of multiple features of single cells. This pipeline identified the nuclei from the Hoechst 33342 (nuclei) channel and used the nuclei as primary objects to assist in the identification of secondary objects, which included F-actin and γ-H2AX in each cell. The pipeline (which is freely available from the authors upon request) has the ability to measure over 200 cellular features, including size, shape, intensity, and texture of nuclei, intensity, and texture of F-actin, and intensity of γ-H2AX in a single cell. In order to measure the nuclear area and shape of a cell, multiple features such as object area, perimeter eccentricity and orientation had to be extracted. Object intensity was determined through measurements of various intensity statistics including the integrated intensity, the mean intensity, and the maximal or minimal pixel intensities within an object or on the object's edge. To quantify the object's texture, Haralick texture features derived from the co-occurrence matrix were employed to calculate the occurrence of pairs of pixels with specific intensity values and spatial relationships in an image. The texture features were described by homogeneity, local variation, randomness, and the contrast of object texture. Supervised ML was performed with the CellProfiler Analyst via the “RandomForest Classifier” algorithm (Broad Institute, MA) (Jones et al., 2008). RandomForest is an ensemble learning method that constructs decision trees with an averaged prediction, and is robust in high-dimensional data analysis with low bias (Breiman, 2001).
In the current study, we quantified three key phenotypic changes in the co-culture model. The first change we noticed was the induction of multinucleated cells, a unique toxicity marker for BPAF observed in spermatogonia cells in the previous study, was once again examined in the current co-culture testicular cell model. As depicted in FIG. 10, the multinucleated phenotype was identified as a cell with giant nuclei and irregular nuclear contour. […] Mitotic phenotypes were identified as cells with small condensed nuclei with a round shape (prometaphase), condensed nuclei with shallow concavities (metaphase), and nuclei with separated and aligned chromosomes (anaphase, telophase, and late telophase). […] Cells with phenotypic 3D structure have F-actin bundles stretching across their cytoplasm. During the training process, a small set of unclassified objects were manually sorted into two classes, including non-multinucleated cells or multinucleated cells, cells not in M phases or cells in M phase, and cells with or without stretching F-actin filaments. The maximum number of features was set as 20 in order to generate rules for phenotypic classification, and those features were automatically selected by the RandomForest classifier to capture the subtle differences between the classes. The phenotype classification was based on the images acquired by Arrayscan™ VTI HCS reader, and multiple features were measured by CellProfiler. The input features included values describing nuclei size and shape, DNA intensity and texture, F-actin intensity and texture, and γ-H2AX intensity at the single-cell level. For multinucleated cells and M phase cells, the training set was established by visual examination of the images in the nuclei channel. For a cell with stretching F-actin filaments, initial manual classification during the training process was based on multi-channel images, including nuclei, F-actin and γ-H2AX. The results were presented in terms of the number of cells in predefined classes and total cell number per image field. The field-based data were averaged for the well-based condition.
Data were presented as mean±standard deviation (SD).

[4] = tested on: pregnancies and sexual development; details: rats, doses of ˜80 and ˜280 mg/kg; cited from earlier work
HepG2 cell line = details: cited from earlier work
[5] = tested on: human breast cancer cells; details: cited from earlier work
reproductive system = details: based on ToxCast database and literature search; cited from earlier work

| SMILES | in vitro call as reproductive toxicant [1] | IC50 ([2]; 24 h) [µM] | IC50 ([2]; 48 h) [µM] | IC50 ([2]; read-out: IC50 values (mostly)) [µM] | doses with significant induction of cells in M phase ([3]; 24, 48, and 72 h) [µM] | induction of multinucleated cells, in words [3] | effect on pregnancies and sexual development [4] | Spearman correlation of total F-actin and γ-H2AX intensity, multinucleated versus non-multinucleated cells ([3]; 5 μM for 24, 48, and 72 h) | dose significantly inducing multinucleated cells ([3]; 24, 48, and 72 h) [µM] | doses with significant induction of cells in M phase ([3]; 24 h) [µM] | effect on cell viability (NR uptake), in words [1] | doses with significant induction of cells in M phase ([3]; 48 and 72 h) [µM] | doses with significant decrease of cells with stretching F-actin filaments (phenotypic 3D structure) ([3]; 72 h) [µM] | dose not able to induce γ-H2AX (HepG2 cell line) [µM] | dose able to induce γ-H2AX [5] [nM] | In vivo Reproductive Toxicity (reproductive system) | doses with significant decrease of cells with stretching F-actin filaments (phenotypic 3D structure) ([3]; 24 h) [µM] |
| --- | --- | --- | --- | --- | --- | --- | --- | --- | --- | --- | --- | --- | --- | --- | --- | --- | --- |
| CC(C)(c1cc(Br)c(O)c(Br)c1)c1cc(Br)c(O)c(Br)c1 [TBBPA, 2,2′,6,6′-Tetrabromo-4,4′-isopropylidenediphenol] | positive | 70 | 58 | ≤ 100 | 15 | did not induce multinucleation |  |  |  |  |  |  |  |  |  |  |  |
| Oc1ccc(C(c2ccc(O)cc2)(C(F)(F)F)C(F)(F)F)cc1 [BPAF, 4,4′-(Hexafluoroisopropylidene)diphenol] | positive | 78 | 50 |  |  |  | impaired pregnancies and sexual development | higher resulting positive correlation | 5 | 10 |  |  |  |  |  |  |  |
| O=S(=O)(c1ccc(O)cc1)c1ccc(O)cc1 [BPS, 4,4′-Sulfonyldiphenol] | positive | 574 | 341 |  |  | did not induce multinucleation |  |  |  |  | significant dose-dependent decrease of cell viability | 100 | 100 |  |  |  |  |
| CC(C)(c1ccc(O)cc1)c1ccc(O)cc1 [BPA, 4,4′-(propane-2,2-diyl) diphenol] |  | 210 | 186 |  |  | did not induce multinucleation | did not alter these reproductive endpoints |  |  |  | significant dose-dependent decrease of cell viability | 100 |  | > 100 | 10 | + | 100 |
